This note sets out measurements from patent US20120129811A1, “TRICYCLIC INHIBITORS OF PRO-MATRIX METALLOPROTEINASE ACTIVATION” (priority 2010, published 2012).

Counter-ions that a name gives are not always drawn.

The target in experiment [1] is T1, proMMP13(1-268) (SEQ ID NO:7) (Homo sapiens, UniProt P45452).
T1 construct: 6xHis (C); made in house; host or cells: HEK293 (transient, secreted)
The experiment in a line: ThermoFluor binding assay with proMMP13(1-268). On the procedure:
The ThermoFluor® (TF) assay is a 384-well plate-based binding assay that measures thermal stability of proteins (Biomol Screen 2001, 6, 429-40; Biochemistry 2005, 44, 5258-66). The experiments were carried out using instruments available from Johnson & Johnson Pharmaceutical Research & Development, LLC. TF dye used in all experiments was […] (1,8-ANS) (Invitrogen: A-47).
Compounds were arranged in a pre-dispensed plate (Greiner Bio-one: 781280), wherein compounds were serially diluted in 100% DMSO across 11 columns within a series. Columns 12 and 24 were used as DMSO reference and contained no compound. For multiple compound concentration-response experiments, the compound aliquots (50 nL) were robotically predispensed directly into black 384-well polypropylene PCR microplates (Abgene: TF-0384/k) using a Cartesian Hummingbird liquid handler (DigiLab, Holliston, Mass.). Following compound dispense, protein and dye solutions were added to achieve the final assay volume of 3 μL. The assay solutions were overlayed with 1 μL of silicone oil (Fluka, type DC 200: 85411) to prevent evaporation.
Assay plates were robotically loaded onto a thermostatically controlled PCR-type thermal block and then heated from 40 to 90° C. at a ramp-rate of 1° C./min for all experiments. Fluorescence was measured by continuous illumination with UV light (Hamamatsu LC6) supplied via fiber optics and filtered through a band-pass filter (380-400 nm; >60D cutoff). Fluorescence emission of the entire 384-well plate was detected by measuring light intensity using a CCD camera (Sensys, Roper Scientific) filtered to detect 500±25 nm, resulting in simultaneous and independent readings of all 384 wells. A single image with 20-sec exposure time was collected at each temperature, and the sum of the pixel intensity in a given area of the assay plate was recorded vs temperature and fit to standard equations to yield the Tm (J Biomol Screen 2001, 6, 429-40).
Thermodynamic parameters necessary for fitting compound binding for each proMMP were estimated by differential scanning calorimetry (DSC) and from ThermoFluor® data. The heat capacity of unfolding for each protein was estimated from the molecular weight and from ThermoFluor® dosing data.
ThermoFluor® with proMMP13(1-268) (SEQ ID NO: 7)
The proMMP13(1-268) (SEQ ID NO:7) protein sample preparations included a desalting buffer exchange step via a PD-10 gravity column (GE Healthcare). The desalting buffer exchange was performed prior to diluting the protein to the final assay concentration of 3.5 μM. The concentration of proMMP13(1-268) (SEQ ID NO:7) was estimated spectrophotometrically based on a calculated extinction coefficient of ε280=37000 M^−1 cm^−1, a calculated molecular weight of 30.8 kDa, and calculated pI of 5.33. ThermoFluor® reference conditions were defined as follows: 100 μg/mL proMMP13(1-268) (SEQ ID NO:7), 25 μM 1,8-ANS, pH 7.0 Buffer (50 mM HEPES pH 7.0, 100 mM NaCl, 0.001% Tween-20, 2.5 mM MgCl2, 300 μM CaCl2). The thermodynamic parameters for proMMP13(1-268) (SEQ ID NO:7) are as follows: Tm (° C.)=67 (+/−0.1), ΔUH(Tm)) (cal mol^−1)=107000(+/−5000), ΔUSTm (cal mol^−1 K^−1)=318, ΔUCp (cal mol^−1 K^−1)=2600.
(DSF heats the sample and reads unfolding from a dye or from intrinsic fluorescence.)

The target in experiment [2] is T2, proMMP9(67-444;ΔFnII) (SEQ ID NO:5) (Homo sapiens, UniProt P14780, DEL216-390).
T2 construct: start methionine (N); made in house; host or cells: E. coli BL21(DE3) RIL
T2 sequence (P14780 with tags, fused parts or gaps DEL216-390): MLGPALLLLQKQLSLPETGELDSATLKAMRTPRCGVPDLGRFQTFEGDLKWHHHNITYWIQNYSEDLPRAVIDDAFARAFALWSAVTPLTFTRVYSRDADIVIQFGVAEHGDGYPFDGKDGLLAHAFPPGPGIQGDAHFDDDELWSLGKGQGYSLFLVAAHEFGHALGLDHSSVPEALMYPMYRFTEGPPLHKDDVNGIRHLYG
Description: ThermoFluor binding assay with proMMP9(67-444;ΔFnII). The procedure, abridged: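 Thermal shift of 3.5 μM proMMP9(67-444;ΔFnII), desalted beforehand, with 50 μM 1,8-ANS in 50 mM HEPES pH 7.0, 100 mM NaCl, 2.5 mM MgCl2, 300 μM CaCl2, 0.001% Tween-20. Heated 40–90 °C at 1 °C/min, fluorescence read at 500 nm; binding fitted from Tm shifts using DSC- and ThermoFluor-derived unfolding parameters.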

Experiment [3] concerns the target T3, proMMP9(20-445;ΔFnII) (SEQ ID NO:6) (Homo sapiens, UniProt P14780, DEL216-390).
T3 construct: start methionine (N); made in house; host or cells: E. coli BL21(DE3) RIL
T3 sequence (P14780 with tags, fused parts or gaps DEL216-390): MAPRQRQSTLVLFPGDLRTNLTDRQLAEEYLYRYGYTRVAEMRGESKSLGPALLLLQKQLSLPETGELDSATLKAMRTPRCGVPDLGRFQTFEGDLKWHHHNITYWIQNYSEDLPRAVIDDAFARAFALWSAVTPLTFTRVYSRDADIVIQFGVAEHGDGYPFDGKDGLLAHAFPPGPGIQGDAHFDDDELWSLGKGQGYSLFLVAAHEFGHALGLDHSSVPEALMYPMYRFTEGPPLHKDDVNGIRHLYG
The experiment in a line: ThermoFluor binding assay with proMMP9(20-445;ΔFnII). The procedure, abridged:
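Protein thermal stability was measured with 2.8 μM proMMP9(20-445;ΔFnII) and 50 μM 1,8-ANS in 50 mM HEPES pH 7.0, 100 mM NaCl, 0.001% Tween-20, 2.5 mM MgCl2, 300 μM CaCl2, across serial compound dilutions. Samples were heated 40–90° C at 1° C/min with fluorescence read at 500 nm. Tm was fitted, and binding was derived from thermodynamic parameters obtained by DSC and ThermoFluor.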

Experiment [4] concerns the target T4, full-length proMMP9(1-707) activation by catalytic MMP3 (Homo sapiens, UniProt P14780, R574P).
T4 construct: made in house; host or cells: proMMP9: HEK293 (secreted); MMP3: E. coli
Description: proMMP9/MMP3 P126 Activation Assay. It is filed as biochemical. On the procedure: proMMP9/MMP3 P126 Activation Assay
The reaction volume was 50 μL. […] Reactivity of residual MMP3 towards P-126 substrate was minimal under these conditions.

T4 sequence (P14780 20-707 R574P): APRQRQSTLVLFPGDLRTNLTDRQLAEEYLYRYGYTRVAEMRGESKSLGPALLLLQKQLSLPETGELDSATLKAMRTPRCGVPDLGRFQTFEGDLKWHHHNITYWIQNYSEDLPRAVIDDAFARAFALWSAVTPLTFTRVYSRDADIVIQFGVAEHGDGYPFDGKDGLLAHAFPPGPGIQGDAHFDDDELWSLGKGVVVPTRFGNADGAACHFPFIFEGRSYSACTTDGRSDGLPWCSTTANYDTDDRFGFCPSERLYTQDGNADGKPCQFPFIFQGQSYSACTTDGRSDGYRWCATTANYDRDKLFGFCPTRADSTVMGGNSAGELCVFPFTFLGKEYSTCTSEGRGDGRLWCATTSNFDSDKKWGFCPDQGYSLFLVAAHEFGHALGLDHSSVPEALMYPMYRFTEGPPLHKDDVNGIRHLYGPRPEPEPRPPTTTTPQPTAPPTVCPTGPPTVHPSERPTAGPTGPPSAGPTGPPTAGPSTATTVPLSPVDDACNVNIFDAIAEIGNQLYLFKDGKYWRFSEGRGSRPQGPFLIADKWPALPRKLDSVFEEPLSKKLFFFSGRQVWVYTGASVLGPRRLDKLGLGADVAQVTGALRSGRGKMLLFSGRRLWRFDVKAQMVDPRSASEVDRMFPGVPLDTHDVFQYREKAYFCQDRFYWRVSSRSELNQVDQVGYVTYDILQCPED

Usually Kd stands for the constant that tells how readily two partners part at equilibrium. One may read the IC50 as the concentration needed to halve the response being measured. A high value points to lower potency. On to `Cc1nc2ccc3sc(Nc4cc(C(N)=O)ccc4OC(C)C)nc3c2s1` [Example 13, 4-Isopropoxy-3-(2-methyl-benzo[1,2-d;3,4-d′]bisthiazol-7-ylamino)-benzamide.TFA], for which the Kd in experiment [1] turned out to be 2200 nM; in experiment [2] it was 390 nM; in experiment [3], 230 nM. For the same compound, the IC50 in experiment [4] turned out to be 420 nM.

Take `COc1ccccc1Nc1nc2c(ccc3[nH]c(N)nc32)s1` [Example 6, N^2-(2-Methoxy-phenyl)-6H-imidazo[4′,5′:3,4]benzo[2,1-d]thiazole-2,7-diamine]: the results for the Kd in experiment [1], in experiment [2] and in experiment [3] were 11000 nM, 290 nM and 2400 nM, respectively. The same compound displayed an IC50 in experiment [4] of 660 nM.

On to `CC(C)Oc1ccc(C(N)=O)cc1Nc1nc2c(ccc3[nH]c(N)nc32)s1` [Example 11, 3-(7-Amino-6H-imidazo[4′,5′:3,4]benzo[2,1-d]thiazol-2-ylamino)-4-isopropoxy-benzamide.HCl], for which the results for the Kd in experiment [1], in experiment [2] and in experiment [3] were 470 nM, 720 nM and 1300 nM, respectively. Further, the IC50 in experiment [4] amounted to 250 nM.

Consider `CC(C)Oc1ccc(C(=O)O)cc1Nc1nc2c(ccc3[nH]c(N)nc32)s1` [Example 10, 3-(7-Amino-6H-imidazo[4′,5′:3,4]benzo[2,1-d]thiazol-2-ylamino)-4-isopropoxy-benzoic acid.HCl], for which the Kd in experiment [1] stood at 710 nM; in experiment [2], 91 nM; in experiment [3] it was 940 nM. In experiment [4], this compound gave an IC50 of 130 nM.

With `COc1cc(C)c(C(N)=O)cc1Nc1nc2c(ccc3c2ncn3C)s1` [Example 56, 4-Methoxy-2-methyl-5-(6-methyl-6H-imidazo[4′,5′:3,4]benzo[2,1-d]thiazol-2-ylamino)-benzamide.HCl], the results for the Kd in experiment [1], in experiment [2] and in experiment [3] were 9800 nM, 3300 nM and 1000 nM, respectively. In experiment [4], this compound gave an IC50 of 1100 nM.

Turning to `COc1ccccc1Nc1nc2c(ccc3[nH]c(NC(C)=O)nc32)s1` [Example 16, N-[2-(2-Methoxy-phenylamino)-6H-imidazo[4′,5′:3,4]benzo[2,1-d]thiazol-7-yl]-acetamide.TFA], the dissociation constant (Kd) in experiment [1] turned out to be 19000 nM; in experiment [2], 990 nM; in experiment [3], 5000 nM. In experiment [4], the concentration for half-maximal inhibition (IC50) worked out at 890 nM.

On to `COc1ccc(OC)c(Nc2nc3c(ccc4c3ncn4C)s2)c1` [Example 42, (2,5-Dimethoxy-phenyl)-(6-methyl-6H-imidazo[4′,5′:3,4]-benzo[2,1-d]thiazol-2-yl)-amine.HCl], for which the Kd came out at 3400 nM in experiment [1], 370 nM in experiment [2] and 1900 nM in experiment [3]. Also, the IC50 in experiment [4] was 350 nM.

Take `CC(=O)Nc1nc2c(ccc3sc(Nc4cc(C(N)=O)ccc4OC(C)C)nc32)[nH]1` [Example 18, 3-(7-Acetylamino-6H-imidazo[4′,5′:3,4]-benzo[2,1-d]thiazol-2-ylamino)-4-isopropoxy-benzamide.HCl]: the Kd was 3400 nM in experiment [1], 550 nM in experiment [2] and 880 nM in experiment [3]. The compound further came in with an IC50 in experiment [4] of 630 nM.

As for `CC(C)Oc1ccc(C(N)=O)cc1Nc1nc2c(ccc3[nH]c(N4CCN(C)CC4)nc32)s1` [Example 31, 4-Isopropoxy-3-[7-(4-methyl-piperazin-1-yl)-6H-imidazo[4′,5′:3,4]benzo[2,1-d]thiazol-2-ylamino]-benzamide.HCl], the values for the Kd in experiment [1], in experiment [2] and in experiment [3] were 2300 nM, 820 nM and 930 nM, respectively. This compound returned an IC50 in experiment [4] of 820 nM.

On to `COc1ccc(OC)c(Nc2nc3c(ccc4nc(N)sc43)s2)c1` [Example 8, N^7-(2,5-Dimethoxy-phenyl)-benzo[1,2-d;3,4-d′]-bisthiazole-2,7-diamine.TFA], for which the Kd is 1800 nM in experiment [1], 680 nM in experiment [2] and 3100 nM in experiment [3]. Further, in experiment [4], inhibition was half-maximal at 1200 nM (IC50).

For the compound `COc1c(F)cc(F)cc1Nc1nc2c(ccc3c2ncn3C)s1` [Example 63, (3,5-Difluoro-2-methoxy-phenyl)-(6-methyl-6H-imidazo[4′,5′:3,4]benzo[2,1-d]thiazol-2-yl)-amine.HCl], the Kd was determined as 2300 nM in experiment [1], 450 nM in experiment [2] and 1200 nM in experiment [3]. In experiment [4], this compound showed an IC50 of 690 nM.

`COc1ccc(Cl)cc1Nc1nc2c(ccc3nc(N)sc32)s1` [Example 7, N^7-(5-Chloro-2-methoxy-phenyl)-benzo[1,2-d;3,4-d′]-bisthiazole-2,7-diamine.TFA]: the Kd is 200 nM in experiment [2] and 2300 nM in experiment [3]. The same compound returned a 50% inhibitory concentration (IC50) in experiment [4] of 1700 nM.

With `Cn1cnc2c(Nc3nc4c(ccc5c4ncn5C)s3)cccc21` [Example 73, (1-Methyl-1H-benzoimidazol-4-yl)-(6-methyl-6H-imidazo[4′,5′:3,4]-benzo[2,1-d]thiazol-2-yl)-amine.HCl], the values for the equilibrium dissociation constant (Kd) in experiment [2] and in experiment [3] were 7500 nM and 13000 nM, respectively. Also, in experiment [4], half-maximal inhibition (IC50) required 5800 nM.

Consider `CCCn1ncc2c3nc(Nc4cc(S(C)(=O)=O)ccc4OC)sc3ccc21` [Example 111, (5-Methanesulfonyl-2-methoxy-phenyl)-(6-propyl-6H-3-thia-1,6,7-triaza-as-indacen-2-yl)-amine.TFA], for which the results for the Kd in experiment [2] and in experiment [3] were 1700 nM and 3100 nM, respectively. For the same compound, in experiment [4], inhibition was half-maximal at 370 nM (IC50).

For `CCOc1ccccc1Nc1nc2c(ccc3sc(Nc4ccccc4OCC)nc32)s1` [Example 4, N,N′-Bis-(2-ethoxy-phenyl)-benzo[2,1-d;3,4-d′]bisthiazole-2,7-diamine.TFA], the results for the Kd in experiment [2] and in experiment [3] were 30000 nM and 67000 nM, respectively. In experiment [4], this compound had an IC50 of 4700 nM.

In the case of `Cc1nc2ccc3sc(Nc4cc(F)ccc4OC(C)C)nc3c2n1CC(F)(F)F` [Example 141, (5-Fluoro-2-isopropoxy-phenyl)-[7-methyl-8-(2,2,2-trifluoro-ethyl)-8H-imidazo[4′,5′:3,4]benzo[2,1-d]thiazol-2-yl]-amine.TFA], the values for the Kd in experiment [2] and in experiment [3] were 7500 nM and 33000 nM, respectively. This compound also registered an IC50 in experiment [4] of 1300 nM.
